In patent US10889805B2, “Intestinal epithelioid cells” (National Institutes of Biomedical Innovation, Health and …, priority 2015, dated 2021):

What was measured:
HiPS-ELC-TFs = test: TEER of HiPS-ELC-TFs (tight junction function); assay type: cell-based, human; details: under action of C10 (tight junction opener); without C10 about 430; FIG. 18A
Excerpt: The tight junction function was confirmed by measuring TEER.

CYP3A4 [1] = test system: CYP3A4
Excerpt: (§1) As comparative cells, Caco-2 cells and LS180 cells were similarly investigated.

ANPEP = ANPEP expression by quantitative real-time RT-PCR in cells differentiating from human iPS cells to enterocyte-like cells; assay type: cell-based; details: compound added with BIO and DAPT, 5 days culture; versus control without the compounds; FIG. 2B
Experimental: (§2) The definitive endoderm cells generated from the human iPS cell line (Tic) by the method described in Example 1 above were further cultured for 15 days using the medium 3. During a period from day 4 to day 19 after the initiation of differentiation induction, BIO (5 μM) and DAPT (10 μM) were added to the culture system. Simultaneously with the addition of the BIO and the DAPT, the cells were further cultured for 5 days using the medium 3 supplemented with any one of phorbol-myristate-acetate (PMA), transforming growth factor β1 (TGEβ1), Wortmannin, Noggin, SB431542, Follistatin, EGF, R-spondin1, Pentagastrin, or Wnt3a (FIG. 2A and FIG. 3A).
(§3) With regard to the measurement of the enterocyte markers ANPEP and VILLIN, each of the enterocyte markers was measured by a quantitative real-time RT-PCR method using SYBR Green gene expression assays (APPLIED BIOSYSTEMS). […] Thus, high expressions of ANPEP and VILLIN were found when the cells were cultured in the system containing SB431542, EGF, or Wnt3a.
The quantitative real-time RT-PCR was performed by the following method. With the use of ISOGEN (NIPPON GENE), total RNA was collected from the enterocyte-like cells obtained by differentiation induction from the human iPS cells. Each total RNA was treated with RNase-free DNaseI (NEW ENGLAND BIOLABS), and then subjected to a reverse transcription reaction using […] VILO cDNA Synthesis Kit (INVITROGEN) to synthesize complementary DNA (cDNA). As a positive control, the total RNA (CLONTECH, BIOCHAIN four lots in total) of a human adult small intestine (human adult intestine: hereinafter sometimes referred to as “AI”) tissue to be used was similarly subjected to cDNA synthesis. A quantitative real-time RT-PCR method using SYBR Green gene expression assays (APPLIED BIOSYSTEMS) was performed, and quantification was performed with STEPONEPLUS real-time PCR System (APPLIED BIOSYSTEMS).

VILLIN = VILLIN expression by quantitative real-time RT-PCR in cells differentiating from human iPS cells to enterocyte-like cells; assay type: cell-based; details: compound added with BIO and DAPT, 5 days culture; versus control without the compounds; FIG. 3B
Experimental: as §2, §3
The quantitative real-time RT-PCR was performed by the following method. […] A quantitative real-time RT-PCR method using SYBR Green gene expression assays (APPLIED BIOSYSTEMS) was performed, and quantification was performed with STEPONEPLUS real-time PCR System (APPLIED BIOSYSTEMS).

CYP3A4 [2] = test system: CYP3A4; remark: listed apart in the source
Experimental: As control cells, Caco-2 cells were similarly subjected to measurement. The expression level of the gene was measured by a real-time RT-PCR method.
as §1

Row | Compound | CYP3A4 expression induction (CYP3A4 [1]) | expression of ANPEP (ANPEP) | expression of VILLIN (VILLIN) | other results
1 | CCCCCCCCCC(=O)O [C10, capric acid] |  |  |  | TEER value of the HiPS-ELC-TFs (HiPS-ELC-TFs): ~0 Ω·cm^2
2 | CCC1(c2ccccc2)C(=O)NC(=O)NC1=O [PB, phenobarbital] | significant expression induction |  |  | 
3 | CCCCCCCCCCCCCC(=O)O[C@@H]1[C@@H](C)[C@@]2(O)[C@@H](C=C(CO)C[C@]3(O)C(=O)C(C)=C[C@@H]23)[C@@H]2C(C)(C)[C@]12OC(C)=O [PMA, phorbol-myristate-acetate] |  | high value |  | 
4 | NC(=O)c1ccc(-c2nc(-c3ccc4c(c3)OCO4)c(-c3ccccn3)[nH]2)cc1 [SB431542] |  | high value | high value | 
5 | C=C1CC[C@H](O)C/C1=C/C=C1\CCC[C@]2(C)[C@@H]([C@H](C)CCCC(C)C)CC[C@@H]12 [VD3, vitamin D3] | significant expression induction |  |  | CYP3A4 gene expression level increase as compared to DMSO action group (CYP3A4 gene): about 100 fold; CYP3A4 induction (CYP3A4 [2]): confirmed; CYP3A4 protein expression level (CYP3A4 protein): increased
6 | epidermal growth factor [EGF] |  | high value | high value | 
